Reference: ChEMBL document CHEMBL5537118, “Synthesis of cinnamoyl tethered indoline derivatives with anti-inflammatory and antioxidant activities” (Eur J Med Chem, 2024)
Active and inactive are the calls of the source. No cut-off for these calls is given here.

Columns and labels:
[1] = test system: Mus musculus; experiment: Antiinflammatory activity in carrageenan-induced Kunming mouse model of paw edema assessed as paw volume at 1 mg/kg, ip pretreated for 1 hr followed by carrageenan administration and measured after 3 hrs by digital plethysmometer (reference value: 0.377 +/- 0.018 mL); type: functional; conditions: time 4 hrs
[2] = test system: Mus musculus; experiment: Antiinflammatory activity in carrageenan-induced Kunming mouse model of paw edema assessed as paw volume at 10 mg/kg, ip pretreated for 1 hr followed by carrageenan administration and measured after 1 hr by digital plethysmometer (reference value: 0.395 +/- 0.017 mL); type: functional; conditions: time 2 hrs
[3] = test system: RAW264.7; experiment: Antioxidant activity in H2O2-stimulated mouse RAW264.7 cells assessed as protection against cell damage at 2 to 5 uM pretreated for 30 mins followed by H2O2 stimulation and measured after 4 hrs by MTT assay; type: functional, cell-based; conditions: dose 2-5 µM, time 4.5 hrs
[4] = test system: RAW264.7; experiment: Antioxidant activity in H2O2-stimulated mouse RAW264.7 cells assessed as protection against cell damage at 2 uM pretreated for 30 mins followed by H2O2 stimulation and measured after 4 hrs by MTT assay relative to control; type: functional; conditions: time 4.5 hrs
[5] = Cytotoxicity against mouse RAW264.7 cells assessed as cell viability at 2 to 10 uM measured after 24 hrs; type: toxicity, cell-based; conditions: dose 2-10 µM, read-out: Activity
[6] = test system: RAW264.7; experiment: Antiinflammatory activity in LPS-induced mouse RAW264.7 cells assessed as inhibition of NO production pretreated for 1 hr followed by LPS addition and measured after 24 hrs by griess reagent based assay; type: functional, cell-based
[7] = test system: RAW264.7; experiment: Antiinflammatory activity in LPS-induced mouse RAW264.7 cells assessed as inhibition of NO production at 2 to 10 uM pretreated for 1 hr followed by LPS addition and measured after 24 hrs by griess reagent based assay; type: functional, cell-based; conditions: dose 2-10 µM, time 25.0 hrs
[8] = test system: RAW264.7; experiment: Effect on HO-1 protein expression in mouse RAW264.7 cells at 0.5 to 2 uM incubated for 24 hrs by Western blot analysis; type: functional, cell-based; conditions: dose 0.5-2 µM
[9] = test system: RAW264.7; experiment: Antioxidant activity in LPS-induced mouse RAW264.7 cells assessed as upregulation of HO-1 protein expression incubated for 24 hrs by Western blot analysis; type: functional, cell-based; conditions: dose 0.5-2 µM
[10] = test system: RAW264.7; experiment: Antiinflammatory activity in LPS-induced mouse RAW264.7 cells assessed as reduction in TNF-alpha level incubated for 24 hrs by ELISA; type: functional, cell-based
[11] = test system: RAW264.7; experiment: Antiinflammatory activity in LPS-induced mouse RAW264.7 cells assessed as inhibition of iNOS protein expression at around 2 uM incubated for 24 hrs by Western blot analysis relative to control; type: functional
[12] = test system: RAW264.7; experiment: Effect on p65 total protein expression in LPS-induced mouse RAW264.7 cells at 0.5 to 2 uM by Western blot analysis; type: functional, cell-based; conditions: dose 0.5-2 µM
[13] = test system: Mus musculus; experiment: Antiinflammatory activity in carrageenan-induced Kunming mouse model of paw edema assessed as paw volume at 10 mg/kg, ip pretreated for 1 hr followed by carrageenan administration and measured immediately by digital plethysmometer (reference value: 0.116 +/- 0.042 mL); type: functional
[14] = test system: Mus musculus; experiment: Antiinflammatory activity in carrageenan-induced Kunming mouse model of paw edema assessed as paw volume at 1 mg/kg, ip pretreated for 1 hr followed by carrageenan administration and measured after 1 hr by digital plethysmometer (reference value: 0.395 +/- 0.017 mL); type: functional; conditions: time 2 hrs
[15] = test system: Mus musculus; experiment: Antiinflammatory activity in carrageenan-induced Kunming mouse model of paw edema assessed as paw volume at 30 mg/kg, ip pretreated for 1 hr followed by carrageenan administration and measured after 1 hr by digital plethysmometer (reference value: 0.395 +/- 0.017 mL); type: functional; conditions: time 2 hrs
[16] = test system: Mus musculus; experiment: Antiinflammatory activity in carrageenan-induced Kunming mouse model of paw edema assessed as paw volume at 10 mg/kg, ip pretreated for 1 hr followed by carrageenan administration and measured after 3 hrs by digital plethysmometer (reference value: 0.377 +/- 0.018 mL); type: functional; conditions: time 4 hrs
[17] = test system: Mus musculus; experiment: Antiinflammatory activity in carrageenan-induced Kunming mouse model of paw edema assessed as paw volume at 30 mg/kg, ip pretreated for 1 hr followed by carrageenan administration and measured after 3 hrs by digital plethysmometer (reference value: 0.377 +/- 0.018 mL); type: functional; conditions: time 4 hrs
[18] = test system: Mus musculus; experiment: Antiinflammatory activity in carrageenan-induced Kunming mouse model of paw edema assessed as paw volume at 1 mg/kg, ip pretreated for 1 hr followed by carrageenan administration and measured after 5 hrs by digital plethysmometer (reference value: 0.362 +/- 0.016 mL); type: functional; conditions: time 6 hrs
[19] = test system: Mus musculus; experiment: Antiinflammatory activity in carrageenan-induced Kunming mouse model of paw edema assessed as paw volume at 10 mg/kg, ip pretreated for 1 hr followed by carrageenan administration and measured after 5 hrs by digital plethysmometer (reference value: 0.362 +/- 0.016 mL); type: functional; conditions: time 6 hrs
[20] = test system: Mus musculus; experiment: Antiinflammatory activity in carrageenan-induced Kunming mouse model of paw edema assessed as paw volume at 30 mg/kg, ip pretreated for 1 hr followed by carrageenan administration and measured after 5 hrs by digital plethysmometer (reference value: 0.362 +/- 0.016 mL); type: functional; conditions: time 6 hrs
[21] = test system: Mus musculus; experiment: Antiinflammatory activity in carrageenan-induced Kunming mouse model of paw edema assessed as edema inhibition at 1 mg/kg, ip pretreated for 1 hr followed by carrageenan administration and measured after 1 hr relative to control; type: functional; conditions: time 2 hrs
[22] = test system: Mus musculus; experiment: Antiinflammatory activity in carrageenan-induced Kunming mouse model of paw edema assessed as edema inhibition at 30 mg/kg, ip pretreated for 1 hr followed by carrageenan administration and measured after 3 hrs relative to control; type: functional; conditions: time 4 hrs
[23] = test system: Mus musculus; experiment: Antiinflammatory activity in carrageenan-induced Kunming mouse model of paw edema assessed as edema inhibition at 10 mg/kg, ip pretreated for 1 hr followed by carrageenan administration and measured after 5 hrs relative to control; type: functional; conditions: time 6 hrs
[24] = test system: Mus musculus; experiment: Antiinflammatory activity in carrageenan-induced Kunming mouse model of paw edema assessed as edema inhibition at 30 mg/kg, ip pretreated for 1 hr followed by carrageenan administration and measured after 5 hrs relative to control; type: functional; conditions: time 6 hrs
[25] = test system: Mus musculus; experiment: Antiinflammatory activity in carrageenan-induced Kunming mouse model of paw edema assessed as paw volume at 30 mg/kg, IG pretreated for 1 hr followed by carrageenan administration and measured after 3 hrs by digital plethysmometer (reference value: 0.365 +/- 0.044 mL); type: functional; conditions: time 4 hrs
[26] = test system: Mus musculus; experiment: Antiinflammatory activity in carrageenan-induced Kunming mouse model of paw edema assessed as paw volume at 30 mg/kg, IG pretreated for 1 hr followed by carrageenan administration and measured after 5 hrs by digital plethysmometer (reference value: 0.353 +/- 0.024 mL); type: functional; conditions: time 6 hrs
[27] = test system: Mus musculus; experiment: Antiinflammatory activity in carrageenan-induced Kunming mouse model of paw edema assessed as edema inhibition at 30 mg/kg, IG pretreated for 1 hr followed by carrageenan administration and measured after 5 hrs relative to control; type: functional; conditions: po, time 6 hrs
[28] = test system: Mus musculus; experiment: Antioxidant activity in carrageenan-induced Kunming mouse model of paw edema assessed as reduction in MDA level in paw tissue at 1 to 30 mg/kg, ip pretreated for 1 hr followed by carrageenan administration and measured after 5 hrs by ELISA; type: functional, organism-based; conditions: dose 1-30 mg/kg, time 6.0 hrs
[29] = test system: Mus musculus; experiment: Antioxidant activity in carrageenan-induced Kunming mouse model of paw edema assessed as increase in SOD activity in paw tissue at 1 to 30 mg/kg, ip pretreated for 1 hr followed by carrageenan administration and measured after 5 hrs by ELISA; type: functional, organism-based; conditions: dose 1-30 mg/kg, time 6.0 hrs

**Q.** Which results are given for `O=C(/C=C/c1ccc(O)c(O)c1)NCCCN1CCc2cc(Cl)ccc21`?
**A.** Activity [1]: 0.267 mL; Activity [2]: 0.189 mL; Activity [3]: Active; Activity [4]: ~100%; viability at 24 h, 10 µM [5]: > 85%; IC50 [6]: 900 nM; Activity [7]: Active; Activity [8]: inactive; Activity [9]: Active; Activity [10]: Dose-Dependent Effect; IC50 ([10]; RAW264.7, 24 h): 1520 nM; inhibition at 2 µM [11]: 50%; Activity [12]: inactive; Activity [13]: 0.128 mL; Activity [14]: 0.32 mL; Activity [15]: 0.158 mL; Activity [16]: 0.175 mL; Activity [17]: 0.143 mL; Activity [18]: 0.225 mL; Activity [19]: 0.155 mL; Activity [20]: 0.137 mL; inhibition in vivo at 1 mg/kg [21]: 27.6%; inhibition in vivo at 30 mg/kg [22]: 95.9%; inhibition in vivo at 10 mg/kg [23]: 86.6%; inhibition in vivo at 30 mg/kg [24]: 94.1%; Activity [25]: 0.243 mL; Activity [26]: 0.227 mL; inhibition in vivo at 30 mg/kg [27]: 58.1%; Activity [28]: Active; Activity [29]: Active
